Reference: patent US20170190671A1, “BIS(ARYL)CATECHOL DERIVATIVES AS HERBICIDES” (E I DU PONT DE NEMOURS AND COMPANY, priority 2014, published 2017)

Key:
Assay in all cases: Test C postemergence
Assay type in all cases: in vivo
[1] = tested on: pigweed (Amaranthus retroflexus); conditions: Amaranthus retroflexus, post-emergence, 336 h, Postemergence, scale 0 to 100, read-out: Plant response rating, Pigweed
How it was run: (§1)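 Seeded loam-sand soil (preemergence) or young potted plants of 2-18 cm (postemergence) received test chemical formulated with surfactant in a non-phytotoxic solvent. Pots were kept in the greenhouse for 13-15 days before a visual 0-100 control rating relative to controls.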

wild oat (Avena fatua) = conditions: Avena fatua, post-emergence, Postemergence, scale 0 to 100, read-out: Plant response rating, Oat, Wild
How it was run: as §1

[2] = tested on: yellow nutsedge (Cyperus esculentus); conditions: Cyperus, post-emergence, 336 h, Postemergence, scale 0 to 100, read-out: Plant response rating, Nutsedge, Yellow
How it was run: as §1

[3] = tested on: blackgrass (Alopecurus myosuroides); conditions: Alopecurus myosuroides, post-emergence, 336 h, Postemergence, scale 0 to 100, read-out: Plant response rating, Blackgrass
How it was run: as §1

[4] = tested on: oilseed rape (Brassica napus); conditions: Brassica napus, post-emergence, Postemergence, scale 0 to 100, read-out: Plant response rating, Oilseed Rape
How it was run: as §1

[5] = tested on: giant foxtail (Setaria faberii); conditions: Setaria faberi, post-emergence, 336 h, Postemergence, scale 0 to 100, read-out: Plant response rating, Foxtail, Giant
How it was run: as §1

[6] = tested on: lambsquarters (Chenopodium album); conditions: Chenopodium album, post-emergence, 336 h, Postemergence, scale 0 to 100, read-out: Plant response rating, Lambsquarters
How it was run: as §1

[7] = tested on: barnyardgrass (Echinochloa crus-galli); conditions: Echinochloa crus-galli, post-emergence, Postemergence, scale 0 to 100, read-out: Plant response rating, Barnyardgrass
How it was run: as §1

[8] = tested on: Italian ryegrass (Lolium multiflorum); conditions: Lolium multiflorum, post-emergence, 336 h, Postemergence, scale 0 to 100, read-out: Plant response rating, Ryegrass, Italian
How it was run: as §1

corn (Zea mays) = conditions: Zea mays, post-emergence, 336 h, Postemergence, scale 0 to 100
How it was run: as §1

[9] = tested on: johnsongrass (Sorghum halepense); conditions: Sorghum halepense, post-emergence, 336 h, Postemergence, scale 0 to 100, read-out: Plant response rating, Johnsongrass
How it was run: as §1

[10] = tested on: ragweed (common ragweed, Ambrosia elatior); conditions: Ambrosia artemisiifolia, post-emergence, 336 h, Postemergence, scale 0 to 100, read-out: Plant response rating, Ragweed
How it was run: as §1

soybean (Glycine max) = conditions: Glycine max, post-emergence, Postemergence, scale 0 to 100, read-out: Plant response rating, Soybean
How it was run: as §1

[11] = tested on: chickweed (common chickweed, Stellaria media); conditions: Stellaria media, post-emergence, Postemergence, scale 0 to 100, read-out: Plant response rating, Chickweed
How it was run: as §1

[12] = tested on: waterhemp (common waterhemp, Amaranthus rudis); conditions: Amaranthus tuberculatus, post-emergence, Postemergence, scale 0 to 100, read-out: Plant response rating, Waterhemp
How it was run: as §1

Fc1cnc(Oc2c(Br)cccc2Oc2ncc(Cl)cn2)nc1 [Compound 22]
pest or weed control at 31 g/ha ([1]; 31 g ai/ha): 75% | pest or weed control at 62 g/ha ([1]; 62 g ai/ha): 85% | pest or weed control at 125 g/ha ([1]; 125 g ai/ha): 90% | pest or weed control at 250 g/ha ([1]; 250 g ai/ha): 100% | pest or weed control at 31 g/ha (wild oat (Avena fatua); 31 g ai/ha): 0% | pest or weed control at 62 g/ha (wild oat (Avena fatua); 62 g ai/ha): 5% | pest or weed control at 125 g/ha (wild oat (Avena fatua); 125 g ai/ha): 10% | pest or weed control at 250 g/ha (wild oat (Avena fatua); 250 g ai/ha): 15% | pest or weed control at 31 g/ha ([2]; 31 g ai/ha): 5% | pest or weed control at 62 g/ha ([2]; 62 g ai/ha): 5% | pest or weed control at 125 g/ha ([2]; 125 g ai/ha): 10% | pest or weed control at 250 g/ha ([2]; 250 g ai/ha): 10% | pest or weed control at 31 g/ha ([3]; 31 g ai/ha): 5% | pest or weed control at 62 g/ha ([3]; 62 g ai/ha): 5% | pest or weed control at 125 g/ha ([3]; 125 g ai/ha): 5% | pest or weed control at 250 g/ha ([3]; 250 g ai/ha): 10% | plant injury at 31 g/ha ([4]; 31 g ai/ha): 40% | plant injury at 62 g/ha ([4]; 62 g ai/ha): 40% | plant injury at 125 g/ha ([4]; 125 g ai/ha): 60% | plant injury at 250 g/ha ([4]; 250 g ai/ha): 35% | pest or weed control at 31 g/ha ([5]; 31 g ai/ha): 5% | pest or weed control at 62 g/ha ([5]; 62 g ai/ha): 5% | pest or weed control at 125 g/ha ([5]; 125 g ai/ha): 10% | pest or weed control at 250 g/ha ([5]; 250 g ai/ha): 20% | pest or weed control at 31 g/ha ([6]; 31 g ai/ha): 70% | pest or weed control at 62 g/ha ([6]; 62 g ai/ha): 75% | pest or weed control at 125 g/ha ([6]; 125 g ai/ha): 95% | pest or weed control at 250 g/ha ([6]; 250 g ai/ha): 98% | pest or weed control at 31 g/ha ([7]; 31 g ai/ha): 5% | pest or weed control at 62 g/ha ([7]; 62 g ai/ha): 5% | pest or weed control at 125 g/ha ([7]; 125 g ai/ha): 15% | pest or weed control at 250 g/ha ([7]; 250 g ai/ha): 10% | pest or weed control at 31 g/ha ([8]; 31 g ai/ha): 0% | pest or weed control at 62 g/ha ([8]; 62 g ai/ha): 0% | pest or weed control at 125 g/ha ([8]; 125 g ai/ha): 5% | pest or weed control at 250 g/ha ([8]; 250 g ai/ha): 5% | Corn plant response rating (crop injury, 0 = no effect, 100 = complete kill) at 31 g/ha (corn (Zea mays); 31 g ai/ha): 5% | Corn plant response rating (crop injury, 0 = no effect, 100 = complete kill) at 62 g/ha (corn (Zea mays); 62 g ai/ha): 10% | Corn plant response rating (crop injury, 0 = no effect, 100 = complete kill) at 125 g/ha (corn (Zea mays); 125 g ai/ha): 10% | Corn plant response rating (crop injury, 0 = no effect, 100 = complete kill) at 250 g/ha (corn (Zea mays); 250 g ai/ha): 10% | pest or weed control at 31 g/ha ([9]; 31 g ai/ha): 0% | pest or weed control at 62 g/ha ([9]; 62 g ai/ha): 0% | pest or weed control at 125 g/ha ([9]; 125 g ai/ha): 5% | pest or weed control at 250 g/ha ([9]; 250 g ai/ha): 5% | pest or weed control at 31 g/ha ([10]; 31 g ai/ha): 30% | pest or weed control at 62 g/ha ([10]; 62 g ai/ha): 35% | pest or weed control at 125 g/ha ([10]; 125 g ai/ha): 90% | pest or weed control at 250 g/ha ([10]; 250 g ai/ha): 90% | plant injury at 31 g/ha (soybean (Glycine max); 31 g ai/ha): 40% | plant injury at 62 g/ha (soybean (Glycine max); 62 g ai/ha): 75% | plant injury at 125 g/ha (soybean (Glycine max); 125 g ai/ha): 90% | plant injury at 250 g/ha (soybean (Glycine max); 250 g ai/ha): 0% | pest or weed control at 31 g/ha ([11]; 31 g ai/ha): 50% | pest or weed control at 62 g/ha ([11]; 62 g ai/ha): 50% | pest or weed control at 125 g/ha ([11]; 125 g ai/ha): 55% | pest or weed control at 250 g/ha ([11]; 250 g ai/ha): 80% | pest or weed control at 31 g/ha ([12]; 31 g ai/ha): 70% | pest or weed control at 62 g/ha ([12]; 62 g ai/ha): 85% | pest or weed control at 125 g/ha ([12]; 125 g ai/ha): 95% | pest or weed control at 250 g/ha ([12]; 250 g ai/ha): 95%
